In patent US8603945B2, “Methods and compositions for providing salicyclic acid-independent pathogen resistance in plants” (The Regents of the University of California, priority 2008, dated 2013):
pEC50: −log10 of the molar value. Entries after “also recorded” stand apart in the source; their conditions may differ. Like-named read-outs stand apart in the source and are kept apart here.

Columns and labels:
[1] = system: HpNoco2 (virulent Peronospora); test: HpNoco2 disease resistance assay on soil grown seedlings (spore / sporangiophore counts 7 dpi); format: in vivo, Arabidopsis; conditions: for efficiency in inducing resistance to HpNoco2 (defense inducing activity): infection 48 hours after treatment, structure-activity analysis
Procedure: (§1) (A) RT-PCR analysis of CaBP22 and WRKY70 expression in Col-0 (wild type) and mutant backgrounds 24 hours after spraying 2 week old seedlings with water (un), 1 mM SA, or 100 μM DCA. ACT8 is shown as loading control. […] (B) Two week old seedlings were sprayed with virulent HpNoco2 24 hours after pre-treatment with 100 uM DCA. Spores were counted 7 days after spray infection. Means and standard errors were calculated from three independent experiments. Mann-Whitney U test (p<0.05) was used to determine significant differences among mutants.
(§2) A: Extent of disease susceptibility/resistance determined by counting the numbers of Peronospora sproangiophores of 17 day old seedlings 7 d after spray-inoculation with 5E4 HpNoco2 spores/ml. 24 h prior to infection with Noco2 the aerial parts of the soil grown seedlings were sprayed with the indicated concentrations of DCA (compound 67) or SA. Three replicates each with at least 30 seedlings per treatment gave similar results. […] Concentrations higher than 100 μM caused cell death, as indicated by reduced GUS staining.
(§3) (A) Chemical structures of DCA analogs analyzed. (B) Fluorometric analysis of GUS activities induced by DCA analogs. Proteins were extracted from 2 week old soil grown Col-0 seedlings 48 hours after spray-treatment with compounds at the indicated concentrations (uM). Means and standard errors calculated from 3 independent replicates. (c) HpNoco2 growth inhibition assay. 2 week old soil grown Col-0 seedlings were spray-infected with HpNoco2 48 hours after treatment with varying concentrations (uM) of each DCA analog. Seedlings were assayed 7 dpi for Peronospora growth (spore counts). 100% inhibition=0 spores. Assay was repeated three times with similar results.
DCA induces disease resistance. Time-course experiment with 2-week old Col-0 seedlings that were sprayed with 100 uM of the respective compounds at the indicated times prior to HpNoco2 (3×10^4 spores/ml) spray-infection. Spores were counted 7 dpi.

[2] = system: −333_CaBP22::GUS; test: GUS activity after spray-treatment of soil grown seedlings (structure-activity analysis, FIG. 5B, FIG. 8B); format: in vivo, Arabidopsis; conditions: for efficiency in inducing −333_CaBP22::GUS expression (defense inducing activity): 48 hours after spray-treatment, structure-activity analysis
Procedure: as §3, with “(B) Fluorometric analysis of GUS activities induced by DCA analogs.” left out, “spores.” for “spores. Assay was repeated three times with similar results.”
DCA and the known SA-analog INA are structurally related. To compare their activities and to gain further understanding on structural features required for their defense inducing activities, a structure function analysis (SAR) was performed using multiple derivatives of DCA and INA (FIG. 8A).

[3] = system: cluster of 131 Arabidopsis genes (Table 1); test: Affymetrix ATH1 whole genome microarray of induced transcriptional responses; format: in vivo
Procedure: This transient activity of DCA functionally discriminates it from INA and allows us to precisely correlate molecular event, such as transcriptional changes, with disease resistance. Therefore we performed a set of microarray experiments with Affymetrix ATH1 Arabidopsis whole genome chips profiling DCA- and INA-induced transcriptional responses at 48 h and 6 d post treatment. […] The reference accession numbers and information can be used by one of skill in the art to obtain the sequences and additional information from public databases available at the time of filing.

[4] = system: PR1; conditions: Wendehenne et al., 1998; Pillonel, 2001; read-out: published EC50 value for PR1 induction; cited from earlier work
[5] = system: −333_CaBP22::GUS; test: −333_CaBP22::GUS reporter induction in one-week old seedlings grown in liquid medium (Xgluc staining / MUG assay); format: in vivo, Arabidopsis; conditions: for pEC50: −333_CaBP22::GUS, MUG assay, read-out: EC50 value (effective concentration leading to a half-maximal response)
Procedure: A: Structure of DCA. B/C: Dose-response curves. One-week old −333_CaBP22::GUS seedlings were grown in liquid medium and incubated with the indicated concentrations of DCA (67) or SA for 24 h prior to Xgluc staining (blue, panel B) or quantitative assays for GUS activity using 4-methyl umbelliferyl-glucuronide (MUG, panel C).
LURP expression appears to be controlled by a multitude of defense regulators including AtWRKY70 and so far unknown transcription factors. […] Thus LURP-promoter/reporter systems are useful tools to screen for defense inducing chemicals. A 333_CaBP22::GUS line was used to screen chemical libraries of the Center for Plant Cell Biology at UC-Riverside for substances that induce activity of this reporter in the absence of pathogens. One week old seedlings of the reporter line grown in 96 well plates with liquid MS medium were treated with library chemicals at a final concentration of 4-20 microM in 0.001% DMSO and stained with X-Gluc to detect GUS activity 24 h later (FIG. 2). The library chemicals were transferred from 384 well plates to the 96 well screening plates by a “96 pin-tool” using a pipetting robot.
Most of the identified −333_CaBP22::GUS-inducers are structurally related to the defense hormone salicylic acid (SA). One of these compounds, 3,5-Dichloroanthranilic acid (DCA, FIG. 3A) to be particularly efficient in inducing −333_CaBP22::GUS expression. The chemical structure of this compound was confirmed by NMR and MS analyses. […] Thus, DCA has a high specificity for its cellular target. Consistent with this the EC50 value (effective concentration leading to a half-maximal response) of DCA is 6 uM (FIG. 3C), which is lower than the published EC50 value for PR1 induction by SA and its functional analog INA (65 and 10 uM, respectively; Wendehenne et al., 1998; Pillonel, 2001).

[6] = system: −333_CaBP22::GUS seedlings; test: toxic effects on plants after spraying aerial parts of seedlings; format: in vivo
Procedure: as §2

[7] = system: CaBP22; test: semiquantitative RT-PCR of CaBP22 expression; format: in vivo, Arabidopsis
Procedure: as §1, with “(A) RT-PCR analysis of CaBP22 and WRKY70 expression in Col-0 (wild type) and mutant backgrounds 24 hours after spraying 2 week old seedlings with water (un), 1 mM SA, or 100 μM DCA.” left out
As the CaBP22-induction by DCA is blocked in the wrky70 mutant, this compound can interfere with a signaling component that acts upstream from WRKY70 transcription and either independently of downstream from SA. Based on this DCA targets a WRKY70-dependent branch of the defense signaling network.

[8] = system: WRKY70; test: semiquantitative RT-PCR of WRKY70 expression; format: in vivo, Arabidopsis
[9] = system: Pseudomonas syringae DC3000 (Pst DC3000); test: Pst DC3000 disease resistance in Arabidopsis seedlings (dip inoculation, cfu); format: in vivo; conditions: 100 uM
Procedure: (§4) (A &B) 14 day old soil grown Arabidopsis Col-0 seedlings were pre-treated with 100 uM of the indicated chemical then dip inoculated with Pst DC3000. (A) Photos taken 5 dpi. (B) Quantification of Pst DC3000 growth by counting colony forming units (cfu) at day 0 (grey bars) or day 3 (black bars). Significant differences were determined by Mann-Whitney U tests (p<0.05). (C) Pst DC3000 grown in liquid culture with 100 um of the indicated chemicals or 100 ug/ml hygromycin (HYG). OD600 reflecting bacterial density was measured at indicated times (hours) after inoculation. Standard errors were all less than 0.05 so are not visible on the graph. (D) Two week old cherry tomato seedlings sprayed 0.5 mM DCA, 4 mM SA or mock-treated two days prior to swab inoculation with Pst DC3000 (OD600=0.4). Photos were taken 6 days after Pst challenge.

[10] = system: Pst DC3000; test: Pst DC3000 growth in liquid culture (OD600); format: cell-based, Pseudomonas syringae; conditions: 100 um in liquid culture
[11] = system: Pst DC3000; test: Pst DC3000 disease symptoms in cherry tomato seedlings (swab inoculation); format: in vivo; conditions: 500 uM, sprayed two days prior to inoculation
Procedure: as §4

[12] = most Arabidopsis defense signaling mutants

## O=C(O)c1cccc(Cl)c1 [3-Chlorobenzoic acid, reference compound]
[1]
  efficiency in inducing resistance to HpNoco2 (defense inducing activity): 3-Chloroanthranilic acid is more active than 3-Chlorobenzoic acid
[2]
  efficiency in inducing −333_CaBP22::GUS expression (defense inducing activity): 3-Chloroanthranilic acid is more active than 3-Chlorobenzoic acid

## Nc1c(Cl)cccc1C(=O)O [3-Chloroanthranilic acid]
[1]
  efficiency in inducing resistance to HpNoco2 (defense inducing activity): reduced defense inducing activities
[2]
  efficiency in inducing −333_CaBP22::GUS expression (defense inducing activity): reduced defense inducing activities

## O=C(O)c1cc(Cl)cc(Cl)c1 [3,5-Dichlorobenzoic acid, reference compound]
[1]
  efficiency in inducing resistance to HpNoco2 (defense inducing activity): DCA is more active than 3,5-Dichlorobenzoic acid
[2]
  efficiency in inducing −333_CaBP22::GUS expression (defense inducing activity): DCA is more active than 3,5-Dichlorobenzoic acid

## O=C(O)c1cc(Cl)nc(Cl)c1 [INA, 2,6-dichloroisonicotinic acid, reference compound]
[1]; 100 uM, time-course, FIG. 9
  duration of defense-inducing activity: lasts much longer leading to strong disease resistance for the entire duration of the experiment
[1]
  efficiency in inducing resistance to HpNoco2 (defense inducing activity): nearly identical; also recorded: equally efficient
[2]
  efficiency in inducing −333_CaBP22::GUS expression (defense inducing activity): nearly identical
[3]
  up-regulation of cluster of 131 genes at 48 h post treatment: significantly up-regulated
  up-regulation of cluster of 131 genes at 6 d post treatment: significantly up-regulated
[4]
  pEC50: 5.00

## Nc1ccccc1C(=O)O [anthranilic acid, reference compound]
[1]
  efficiency in inducing resistance to HpNoco2 (defense inducing activity): nearly completely inactive
[2]
  efficiency in inducing −333_CaBP22::GUS expression (defense inducing activity): nearly completely inactive

## O=C(O)c1ccccc1 [benzoic acid, reference compound]
[1]
  efficiency in inducing resistance to HpNoco2 (defense inducing activity): nearly completely inactive
[2]
  efficiency in inducing −333_CaBP22::GUS expression (defense inducing activity): nearly completely inactive

## Nc1c(Cl)cc(Cl)cc1C(=O)O [DCA, 3,5-Dichloroanthranilic acid]
[5]; Arabidopsis thaliana, 24 h, 24 h
  pEC50: 5.22
[5]; liquid medium, 24 h, FIG. 3B
  concentration at which active as inducer of −333_CaBP22::GUS: 0.1 µM
[5]; versus SA, FIG. 3B
  active at x-fold lower concentrations than SA (−333_CaBP22::GUS induction): 10 fold
[5]; 24 h
  pEC50: 5.15
[1]; 100 uM pre-treatment 24 h, npr1 mutant
  resistance to HpNoco2 in npr1 mutant: slight reduction
[1]; 100 uM pre-treatment 24 h, wrky70 mutant
  resistance to HpNoco2 in wrky70 mutant: partially reduced
[1]; 100 uM, time-course, FIG. 9
  duration of defense-inducing activity: only transiently active
  time after treatment by which strong disease resistance is reached: ≤ 1 h
[1]
  efficiency in inducing resistance to HpNoco2 (defense inducing activity): nearly identical; also recorded: equally efficient
[1]; sprayed on aerial parts of soil grown seedlings 24 h prior to HpNoco2
  concentration giving efficient induction of disease resistance against virulent Peronospora (as low as): 10 µM
[6]
  concentrations causing cell death (reduced GUS staining): higher than 100 μM
[7]; 10 uM, wild type
  endogenous CaBP22 gene expression: activates
[7]; [12]
  CaBP22 expression in most mutants with deficiencies in defense signaling: wild type expression
[7]; nahG (SA-catabolizing enzyme)
  effect of nahG transgene on induction of CaBP22: does not suppress
[7]; wrky70 mutant
  CaBP22-induction in wrky70 mutant: blocked
[8]; 10 uM, wild type
  WRKY70 expression: activates
[8]; [12]
  WRKY70 expression in most mutants with deficiencies in defense signaling: wild type expression
[8]; nahG (SA-catabolizing enzyme)
  effect of nahG transgene on induction of WRKY70: does not suppress
[9]; Arabidopsis Col-0
  disease resistance to Pst DC3000: triggered disease resistance
[9]; day 3
  suppression of bacterial growth (cfu) compared with SA and INA: more efficiently than SA or the frequently used SA analog INA
[10]
  growth of Pst DC3000 in in vitro cultures: does not affect growth
[11]
  Pst DC3000 mediated disease symptoms in tomato: suppressed Pst DC3000 mediated disease symptoms such as chlorosis
[2]
  efficiency in inducing −333_CaBP22::GUS expression (defense inducing activity): nearly identical
[2]; spraying of 10-100 uM
  reporter gene expression after spraying aerial parts: induced reporter gene expression
[3]
  up-regulation of cluster of 131 genes at 48 h post treatment: significantly up-regulated
  up-regulation of cluster of 131 genes at 6 d post treatment: not at 6 d post DCA treatment

## O=C(O)c1ccccc1O [SA, salicylic acid]
[1]
  efficiency in inducing resistance to HpNoco2 (defense inducing activity): less efficiently than DCA or INA
[2]
  efficiency in inducing −333_CaBP22::GUS expression (defense inducing activity): less efficiently than DCA or INA
[4]
  pEC50: 4.19

## Nc1ccc(Cl)cc1C(=O)O [5-Chloroanthranilic acid]
[1]
  efficiency in inducing resistance to HpNoco2 (defense inducing activity): reduced defense inducing activities
[2]
  efficiency in inducing −333_CaBP22::GUS expression (defense inducing activity): reduced defense inducing activities

## Nc1cccc(Cl)c1C(=O)O [6-Chloroanthranilic acid, reference compound]
[1]
  efficiency in inducing resistance to HpNoco2 (defense inducing activity): completely inactive
[2]
  efficiency in inducing −333_CaBP22::GUS expression (defense inducing activity): completely inactive
